Legend:
Format in all cases: in vivo
Plutella xylostella = assay: Example B3: Plutella xylostella (diamond back moth), artificial diet, eggs; conditions: 192 h, application rate 200 ppm, 8 days after infestation, read-out: control in at least one of the two categories (mortality or growth inhibition)
Description: 24-well microtiter plates with artificial diet were treated with aqueous test solutions prepared from 10′000 ppm DMSO stock solutions by pipetting. After drying, Plutella eggs were pipetted through a plastic stencil onto a gel blotting paper and the plate was closed with it. The samples were assessed for mortality and growth inhibition in comparison to untreated samples 8 days after infestation. The following compounds gave an effect of at least 80% control in at least one of the two categories (mortality or growth inhibition) at an application rate of 200 ppm: P1, P2, P3, P4, P5, P6

Diabrotica balteata = assay: Example B1: Diabrotica balteata (corn root worm), maize sprouts sprayed, L2 larvae; conditions: 96 h, application rate 200 ppm, 4 days after infestation, read-out: control in at least one of the two categories (mortality or growth inhibition)
Description: Maize sprouts placed onto an agar layer in 24-well microtiter plates were treated with aqueous test solutions prepared from 10′000 ppm DMSO stock solutions by spraying. After drying, the plates were infested with L2 larvae (6 to 10 per well). The samples were assessed for mortality and growth inhibition in comparison to untreated samples 4 days after infestation.

Euschistus heros = assay: Example B2: Euschistus heros (neotropical brown stink bug), soybean leaves sprayed, N2 nymphs; conditions: 120 h, application rate 200 ppm, 5 days after infestation, read-out: control in at least one of the two categories (mortality or growth inhibition)
Description: Soybean leaves on agar in 24-well microtiter plates were sprayed with aqueous test solutions prepared from 10′000 ppm DMSO stock solutions. After drying the leaves were infested with N2 nymphs. The samples were assessed for mortality and growth inhibition in comparison to untreated samples 5 days after infestation.

Tetranychus urticae = assay: Example B7: Tetranychus urticae (two-spotted spider mite) feeding/contact activity, bean leaf discs; conditions: foliar, 192 h
Description: Bean leaf discs on agar in 24-well microtiter plates were sprayed with aqueous test solutions prepared from 10′000 ppm DMSO stock solutions. After drying the leaf discs were infested with a mite population of mixed ages. The samples were assessed for mortality on mixed population (mobile stages) 8 days after infestation.

Myzus persicae [1] = assay: Example B4: Myzus persicae (green peach aphid) feeding/contact activity, sunflower leaf discs; conditions: foliar, 144 h, application rate 200 ppm, 6 days after infestation, mixed ages
Description: (§1) Sunflower leaf discs were placed onto agar in a 24-well microtiter plate and sprayed with aqueous test solutions prepared from 10′000 ppm DMSO stock solutions. After drying, the leaf discs were infested with an aphid population of mixed ages. The samples were assessed for mortality 6 days after infestation.

Spodoptera littoralis = assay: Example B6: Spodoptera littoralis (Egyptian cotton leaf worm), cotton leaf discs, L1 larvae; conditions: foliar, 72 h, application rate 200 ppm, 3 days after infestation, read-out: control in at least one of the categories (mortality, anti-feedant effect, or growth inhibition)
Description: Cotton leaf discs were placed onto agar in 24-well microtiter plates and sprayed with aqueous test solutions prepared from 10′000 ppm DMSO stock solutions. After drying the leaf discs were infested with five L1 larvae. The samples were assessed for mortality, anti-feeding effect, and growth inhibition in comparison to untreated samples 3 days after infestation. Control of Spodoptera littoralis by a test sample is given when at least one of the categories mortality, anti-feedant effect, and growth inhibition is higher than the untreated sample.

Chilo suppressalis = assay: Example B9: Chilo suppressalis (striped rice stemborer), artificial diet, L2 larvae; conditions: 144 h, application rate 200 ppm, 6 days after infestation, read-out: control in at least one of the three categories (mortality, anti-feedant effect or growth inhibition)
Description: 24-well microtiter plates with artificial diet were treated with aqueous test solutions prepared from 10′000 ppm DMSO stock solutions by pipetting. After drying, the plates were infested with L2 larvae (6-8 per well). The samples were assessed for mortality, anti-feeding effect, and growth inhibition in comparison to untreated samples 6 days after infestation. Control of Chilo suppressalis by a test sample is given when at least one of the categories mortality, anti-feedant effect, and growth inhibition is higher than the untreated sample.

Myzus persicae [2] = assay: Example B5: Myzus persicae (green peach aphid) intrinsic activity, sucrose solution, 24-well; conditions: 120 h, test rate 12 ppm, 5 days after infestation
Description: Test compounds prepared from 10′000 ppm DMSO stock solutions were applied by pipette into 24-well microtiter plates and mixed with sucrose solution. The plates were closed with a stretched Parafilm. A plastic stencil with 24 holes was placed onto the plate and infested pea seedlings were placed directly on the Parafilm. The infested plate was closed with a gel blotting paper and another plastic stencil and then turned upside down. The samples were assessed for mortality 5 days after infestation.

Myzus persicae [3] = assay: Example B10: Myzus persicae (green peach aphid), sucrose solution, 96-well; conditions: 120 h, application rate 50 ppm, 5 days after infestation
Description: Test compounds prepared from 10′000 ppm DMSO stock solutions were applied by a liquid handling robot into 96-well microtiter plates and mixed with a sucrose solution. Parafilm was stretched over the 96-well microtiter plate and a plastic stencil with 96 holes was placed onto the plate. Aphids were sieved into the wells directly onto the Parafilm. The infested plates were closed with a gel blotting card and a second plastic stencil and then turned upside down. The samples were assessed for mortality 5 days after infestation.

Thrips tabaci = assay: Example B8: Thrips tabaci (onion thrips) feeding/contact activity, sunflower leaf discs; conditions: foliar, 144 h, application rate 200 ppm, 6 days after infestation, mixed ages
Description: as §1, with “on” for “onto”, “in” for “in a”, “plates” for “plate”, “drying” for “drying,”, “a thrips” for “an aphid”

CC(c1ncnn1-c1ccc(F)cn1)N(CC1CC1)C(=O)c1cc(C(F)(F)F)cc(C(F)(F)F)c1 (stereo not shown) [Compound P5, N-(cyclopropylmethyl)-N-[1-[2-(5-fluoro-2-pyridyl)-1,2,4-triazol-3-yl]ethyl]-3,5-bis(trifluoromethyl)benzamide]
≥ 80%: percent control (mortality or growth inhibition) at 200 ppm (Plutella xylostella) | percent control (mortality or growth inhibition) at 200 ppm (Diabrotica balteata) | percent control (mortality or growth inhibition) at 200 ppm (Euschistus heros) | mortality at 200 ppm (Tetranychus urticae) | mortality at 200 ppm (Myzus persicae [1]) | percent control (mortality, anti-feedant effect or growth inhibition) at 200 ppm (Spodoptera littoralis)

CC(c1ncnn1-c1ncccc1F)N(CC1CC1)C(=O)c1cc(C(F)(F)F)cc(C(F)(F)F)c1 (stereo not shown) [Compound P2, N-(cyclopropylmethyl)-N-[1-[2-(3-fluoro-2-pyridyl)-1,2,4-triazol-3-yl]ethyl]-3,5-bis(trifluoromethyl)benzamide]
≥ 80%: percent control (mortality or growth inhibition) at 200 ppm (Plutella xylostella) | percent control (mortality or growth inhibition) at 200 ppm (Diabrotica balteata) | percent control (mortality, anti-feedant effect or growth inhibition) at 200 ppm (Spodoptera littoralis)

CC(NC(=O)c1cc(C(F)(F)F)cc(C(F)(F)F)c1)c1ncnn1-c1ccc(Cl)cn1 (stereo not shown) [Compound P1, N-[1-[2-(5-chloro-2-pyridyl)-1,2,4-triazol-3-yl]ethyl]-3,5-bis(trifluoromethyl)benzamide]
≥ 80%: percent control (mortality or growth inhibition) at 200 ppm (Plutella xylostella) | percent control (mortality or growth inhibition) at 200 ppm (Diabrotica balteata) | percent control (mortality or growth inhibition) at 200 ppm (Euschistus heros) | percent control (mortality, anti-feedant effect or growth inhibition) at 200 ppm (Chilo suppressalis) | percent control (mortality, anti-feedant effect or growth inhibition) at 200 ppm (Spodoptera littoralis)

CC(NC(=O)c1cc(C(F)(F)F)cc(C(F)(F)F)c1)c1ncnn1-c1cccc(F)n1 (stereo not shown) [Compound P6, N-[1-[2-(6-fluoro-2-pyridyl)-1,2,4-triazol-3-yl]ethyl]-3,5-bis(trifluoromethyl)benzamide]
≥ 80%: percent control (mortality or growth inhibition) at 200 ppm (Plutella xylostella) | percent control (mortality, anti-feedant effect or growth inhibition) at 200 ppm (Chilo suppressalis)

CC(NC(=O)c1cc(C(F)(F)F)cc(C(F)(F)F)c1)c1ncnn1-c1ccc(F)cn1 (stereo not shown) [Compound P3, N-[1-[2-(5-fluoro-2-pyridyl)-1,2,4-triazol-3-yl]ethyl]-3,5-bis(trifluoromethyl)benzamide]
≥ 80%: percent control (mortality or growth inhibition) at 200 ppm (Plutella xylostella) | percent control (mortality or growth inhibition) at 200 ppm (Diabrotica balteata) | percent control (mortality or growth inhibition) at 200 ppm (Euschistus heros) | mortality at 200 ppm (Tetranychus urticae) | mortality at 12 ppm (Myzus persicae [2]) | percent control (mortality, anti-feedant effect or growth inhibition) at 200 ppm (Spodoptera littoralis)

CC(NC(=O)c1cc(C(F)(F)F)cc(C(F)(F)F)c1)c1ncnn1-c1ncccc1F (stereo not shown) [Compound P4, N-[1-[2-(3-fluoro-2-pyridyl)-1,2,4-triazol-3-yl]ethyl]-3,5-bis(trifluoromethyl)benzamide]
≥ 80%: percent control (mortality or growth inhibition) at 200 ppm (Plutella xylostella) | percent control (mortality or growth inhibition) at 200 ppm (Diabrotica balteata) | percent control (mortality or growth inhibition) at 200 ppm (Euschistus heros) | mortality at 50 ppm (Myzus persicae [3]) | percent control (mortality, anti-feedant effect or growth inhibition) at 200 ppm (Spodoptera littoralis) | mortality at 200 ppm (Thrips tabaci)
